# Measured values as given in patent US10202361B2, “Pyridazinones as herbicides” (E I DU PONT DE NEMOURS AND COMPANY, priority 2014, dated 2019).
# Experiments:
# Type in all cases: in vivo
# [1] = tested on: blackgrass (Alopecurus myosuroides); test: Test D pre-/postemergence controlled growth environment herbicide test; settings: scale 0 to 100
# Procedure, shortened: (§1)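 Preemergence: seeds sown in silt loam soil and sprayed with test chemicals in a non-phytotoxic solvent mixture containing surfactant. Postemergence: plants grown in peat/vermiculite planting medium and sprayed at 2 to 18 cm (1- to 4-leaf stage). Visual rating versus controls after 14 to 21 d, 0 (no effect) to 100 (complete control).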
# [2] = tested on: mustard, wild (wild mustard, Sinapis arvensis); test: as above; settings: scale 0 to 100
# Procedure, shortened: as §1
# [3] = tested on: windgrass (Apera spica-venti); test: as above; settings: scale 0 to 100
# Procedure, shortened: as §1
# [4] = tested on: crabgrass, large (large crabgrass Digitaria sanguinalis); test: Test E pre-/postemergence greenhouse herbicide test; settings: Preemergence, scale 0 to 100
# [5] = tested on: goosegrass (Eleusine indica); test: as above; settings: Preemergence, scale 0 to 100
# [6] = tested on: smartweed (ladysthumb smartweed, Polygonum persicaria); test: as above; settings: scale 0 to 100
# Procedure, shortened: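 Pre- and postemergence greenhouse spray; compound in non-phytotoxic solvent + surfactant. Pre: silt loam soil at planting. Post: 1- to 4-leaf plants, 2 to 18 cm, peat-based medium. Visual score 0–100 vs untreated controls at 14 to 21 d.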
# [7] = tested on: cocklebur (common cocklebur, Xanthium strumarium); test: as above; settings: Preemergence, scale 0 to 100
# [8] = tested on: nutsedge, yellow (yellow nutsedge, Cyperus esculentus); test: as above; settings: Preemergence, scale 0 to 100
# [9] = tested on: waterhemp_RES2 (ALS & HPPD resistant common waterhemp, Amaranthus rudis); test: Test E postemergence greenhouse herbicide test; settings: scale 0 to 100
# Method: At the same time, plants from these crop and weed species and also waterhemp_RES1, (ALS & Triazine resistant common waterhemp, Amaranthus rudis), and waterhemp_RES2, (ALS & HPPD resistant common waterhemp, Amaranthus rudis) were planted in pots containing Redi-Earth® planting medium (Scotts Company, 14111 Scottslawn Road, Marysville, Ohio 43041) comprising spaghnum peat moss, vermiculite, wetting agent and starter nutrients were treated with postemergence applications of test chemicals formulated in the same manner. Plants ranged in height from 2 to 18 cm for postemergence treatments (1- to 4-leaf stage). Treated plants and controls were maintained in a greenhouse for 14 to 21 d, after which time all species were compared to controls and visually evaluated. Plant response ratings, summarized in Table E, are based on a scale of 0 to 100 where 0 is no effect and 100 is complete control. A dash (-) response means no test result.
smiles,measurement,setting,value
"COc1cc(=O)n(-c2ccc(F)cc2)nc1Cc1ccnc(C(F)(F)F)c1 [Compound 17, 2-(4-fluorophenyl)-5-methoxy-6-[[2-(trifluoromethyl)-4-pyridinyl]methyl]-3 (2H)-pyridazinone]",Plant response rating,"[1]; Postemergence, 31 g ai/ha",10
same,Plant response rating,"[1]; Postemergence, 62 g ai/ha",10
same,Plant response rating,"[1]; Postemergence, 125 g ai/ha",10
same,Plant response rating,"[1]; Postemergence, 250 g ai/ha",20
same,Plant response rating,"[1]; Postemergence, 500 g ai/ha",50
same,Plant response rating,"[1]; Preemergence, 31 g ai/ha",0
same,Plant response rating,"[1]; Preemergence, 62 g ai/ha",10
same,Plant response rating,"[1]; Preemergence, 125 g ai/ha",30
same,Plant response rating,"[1]; Preemergence, 250 g ai/ha",60
same,Plant response rating,"[1]; Preemergence, 500 g ai/ha",90
same,Plant response rating,"[2]; Postemergence, 31 g ai/ha",20
same,Plant response rating,"[2]; Postemergence, 62 g ai/ha",50
same,Plant response rating,"[2]; Postemergence, 125 g ai/ha",80
same,Plant response rating,"[2]; Postemergence, 250 g ai/ha",100
same,Plant response rating,"[2]; Postemergence, 500 g ai/ha",100
same,Plant response rating,"[2]; Preemergence, 31 g ai/ha",100
same,Plant response rating,"[2]; Preemergence, 62 g ai/ha",100
same,Plant response rating,"[2]; Preemergence, 125 g ai/ha",100
same,Plant response rating,"[2]; Preemergence, 250 g ai/ha",100
same,Plant response rating,"[2]; Preemergence, 500 g ai/ha",100
same,Plant response rating,"[3]; Postemergence, 31 g ai/ha",0
same,Plant response rating,"[3]; Postemergence, 62 g ai/ha",5
same,Plant response rating,"[3]; Postemergence, 125 g ai/ha",5
same,Plant response rating,"[3]; Postemergence, 250 g ai/ha",10
same,Plant response rating,"[3]; Postemergence, 500 g ai/ha",25
same,Plant response rating,"[3]; Preemergence, 31 g ai/ha",80
same,Plant response rating,"[3]; Preemergence, 62 g ai/ha",80
same,Plant response rating,"[3]; Preemergence, 125 g ai/ha",100
same,Plant response rating,"[3]; Preemergence, 250 g ai/ha",100
same,Plant response rating,"[3]; Preemergence, 500 g ai/ha",100
same,"Plant response rating: Crabgrass, Large",[4]; 16 g ai/ha,35
same,"Plant response rating: Crabgrass, Large",[4]; 31 g ai/ha,100
same,"Plant response rating: Crabgrass, Large",[4]; 62 g ai/ha,100
same,"Plant response rating: Crabgrass, Large",[4]; 125 g ai/ha,100
same,"Plant response rating: Crabgrass, Large",[4]; 250 g ai/ha,100
same,Plant response rating: Goosegrass,[5]; 16 g ai/ha,0
same,Plant response rating: Goosegrass,[5]; 31 g ai/ha,20
same,Plant response rating: Goosegrass,[5]; 62 g ai/ha,60
same,Plant response rating: Goosegrass,[5]; 125 g ai/ha,95
same,Plant response rating: Goosegrass,[5]; 250 g ai/ha,98
same,Plant response rating: Smartweed,"[6]; Postemergence, 16 g ai/ha",10
same,Plant response rating: Smartweed,"[6]; Postemergence, 31 g ai/ha",15
same,Plant response rating: Smartweed,"[6]; Postemergence, 62 g ai/ha",30
same,Plant response rating: Smartweed,"[6]; Postemergence, 125 g ai/ha",40
same,Plant response rating: Smartweed,"[6]; Postemergence, 250 g ai/ha",60
same,Plant response rating: Smartweed,"[6]; Preemergence, 16 g ai/ha",0
same,Plant response rating: Smartweed,"[6]; Preemergence, 31 g ai/ha",0
same,Plant response rating: Smartweed,"[6]; Preemergence, 62 g ai/ha",0
same,Plant response rating: Smartweed,"[6]; Preemergence, 125 g ai/ha",20
same,Plant response rating: Smartweed,"[6]; Preemergence, 250 g ai/ha",75
same,Plant response rating: Cocklebur,[7]; 16 g ai/ha,0
same,Plant response rating: Cocklebur,[7]; 62 g ai/ha,0
same,"Plant response rating: Nutsedge, Yellow",[8]; 16 g ai/ha,0
same,"Plant response rating: Nutsedge, Yellow",[8]; 31 g ai/ha,0
same,"Plant response rating: Nutsedge, Yellow",[8]; 62 g ai/ha,35
same,"Plant response rating: Nutsedge, Yellow",[8]; 125 g ai/ha,50
same,"Plant response rating: Nutsedge, Yellow",[8]; 250 g ai/ha,70
same,Plant response rating: Waterhemp_RES2,[9]; 16 g ai/ha,60
same,Plant response rating: Waterhemp_RES2,[9]; 31 g ai/ha,80
same,Plant response rating: Waterhemp_RES2,[9]; 62 g ai/ha,80
same,Plant response rating: Waterhemp_RES2,[9]; 125 g ai/ha,90
same,Plant response rating: Waterhemp_RES2,[9]; 250 g ai/ha,95
